According to ChEMBL document CHEMBL1949581, “Anion inhibition studies of an α-carbonic anhydrase from the living fossil Astrosclera willeyana” (Bioorg Med Chem Lett, 2012):

target: T1, Astrosclerin-3 (Astrosclera willeyana, UniProt A6YCJ1); test: biochemical; assay type: cell-based
T1 sequence (A6YCJ1 whole entry): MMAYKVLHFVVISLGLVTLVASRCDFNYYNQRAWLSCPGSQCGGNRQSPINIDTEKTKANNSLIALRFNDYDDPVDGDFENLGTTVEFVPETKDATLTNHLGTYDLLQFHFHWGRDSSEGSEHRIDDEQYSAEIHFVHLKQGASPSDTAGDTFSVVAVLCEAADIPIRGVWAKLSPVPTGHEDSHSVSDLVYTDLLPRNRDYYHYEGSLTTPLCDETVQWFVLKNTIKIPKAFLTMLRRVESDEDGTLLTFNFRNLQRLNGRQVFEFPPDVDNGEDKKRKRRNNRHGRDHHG
Description: Inhibition of Astrosclera willeyana recombinant GST-tagged astrosclerin 3 expressed in Escherichia coli BL21-DE3-RIPL cells preincubated for 15 mins measured for 10 to 100 secs by stopped flow CO2 hydration assay

**Q.** How did the Ki turn out when `[I-].[Na+]` [SODIUM IODIDE] was run?
**A.** 10400 µM

**Q.** How did the Ki turn out when `OB(O)c1ccccc1` [PHENYLBORONIC ACID] was run?
**A.** 9.6 µM

**Q.** Which Ki does the source give for `[Cl-].[Na+]` [SODIUM CHLORIDE] here?
**A.** 460 µM

**Q.** How did the Ki turn out when `O=S(=O)([O-])[O-].[Na+].[Na+]` [SODIUM SULFATE ANHYDROUS] was run?
**A.** 76300 µM

**Q.** With `O=S(=O)(O)OOS(=O)(=O)O` [SODIUM PERSULFATE] as the compound, how does the Ki read?
**A.** 70600 µM

**Q.** `O=C([O-])O.[Na+]` [SODIUM BICARBONATE] was tested. Which Ki did it give?
**A.** 22800 µM

**Q.** With `S` [SODIUM HYDROSULFIDE] as the compound, how does the Ki read?
**A.** 490 µM

**Q.** For `[N-]=[N+]=[N-]` [SODIUM AZIDE], which Ki is on record?
**A.** 27800 µM

**Q.** With `NS(N)(=O)=O` [SULFAMIDE] as the compound, how does the Ki read?
**A.** 8.9 µM

**Q.** With `N#C[SeH]` [SODIUM SELENOCYANATE] as the compound, how does the Ki read?
**A.** 770 µM

**Q.** For `O=BOB(O)OB(O)OB=O` [SODIUM TETRABORATE], which Ki is on record?
**A.** 21900 µM

**Q.** With `CCN(CC)C(=S)S` [DITIOCARB SODIUM] as the compound, how does the Ki read?
**A.** 450 µM

**Q.** With `S=C(S)S` [SODIUM CARBONOTRITHIOATE] as the compound, how does the Ki read?
**A.** 710 µM

**Q.** For `[F-].[Na+]` [SODIUM FLUORIDE], which Ki is on record?
**A.** 940 µM

**Q.** For `O=S(=O)(O)NS(=O)(=O)O` [SODIUM IMINODISULFONATE], which Ki is on record?
**A.** 660 µM

**Q.** Which Ki does the source give for `F[B-](F)(F)F.[Na+]` [SODIUM TETRAFLUOROBORATE] here?
**A.** > 200000 µM

**Q.** `O=[N+]([O-])[O-].[Na+]` [SODIUM NITRATE] was tested. Which Ki did it give?
**A.** 76400 µM

**Q.** How did the Ki turn out when `O=NO` [SODIUM NITRITE] was run?
**A.** 63800 µM

**Q.** Which Ki does the source give for `O=S(=O)(O)OS(=O)(=O)O` [SODIUM PYROSULFATE] here?
**A.** 88100 µM

**Q.** `O=C([O-])[O-].[Na+].[Na+]` [SODIUM CARBONATE] was tested. Which Ki did it give?
**A.** 13500 µM

**Q.** How did the Ki turn out when `NS(=O)(=O)O` [SODIUM SULFAMATE] was run?
**A.** 13 µM

**Q.** `O=[Se](=O)(O)O` [SODIUM SELENATE] was tested. Which Ki did it give?
**A.** 880 µM

**Q.** With `N#CO` [SODIUM CYANATE] as the compound, how does the Ki read?
**A.** 230 µM

**Q.** Which Ki does the source give for `[Br-].[Na+]` [SODIUM BROMIDE] here?
**A.** 30600 µM

**Q.** With `O=S([O-])O.[Na+]` [SODIUM BISULFITE] as the compound, how does the Ki read?
**A.** 320 µM

**Q.** With `O=P(O)(O)OP(=O)(O)O` [SODIUM PYROPHOSPHATE] as the compound, how does the Ki read?
**A.** 57700 µM

**Q.** Which Ki does the source give for `[O-][Cl+3]([O-])([O-])O` [SODIUM PERCHLORATE] here?
**A.** 5110 µM

**Q.** For `O=[Te](=O)(O)O` [SODIUM TELLURATE], which Ki is on record?
**A.** 750 µM
